We go through 2 molecules from US20090054328A1, “Reagents and Methods for Modulating Gene Expression Related to Hypertension” (The Board of Trustees of the University of Illinois, priority 2005, published 2009).

For one data set, the system named is MLC-P in Mm5MT cells. The data set is described as follows: MLC-P by urea/glycerol gel-immunoblotting in Mm5MT cells. Particulars: 10 μM ML-7, 30 μM etoposide or both, 16 hours. It counts as cell-based, mouse. As for the experimental part: (§1) MLC-P expression was measured in the cells using urea/glycerol gel-immunoblotting as follows. […] The unphosphoryiated and phosphorylated forms of MLC20 were separated using urea/glycerol PAGE, transferred to nitrocellulose and probed with an affinity purified antibody to MLC20. This antibody recognizes the unphosphoryiated and phosphorylated forms of MLC20. Immunoreactive bands were visualized using enhanced chemiluminescence (ECL) detection reagents (Amersham Pharmacia Biotech, Piscataway, N.J.) (Fazal et al., 2005, Mol Cell Biol 25:6259-66).

The subject of data set [1] is MLL rat prostate cancer cells. The data set can be described thus: Apoptosis by FACS (annexin V and PI) in MLL cells. It counts as cell-based. As for the experimental part:
(§2) Mm5MT or MLL cells (200,000 cells per well) were seeded in 6-well dishes one day before drug treatment and cultured as described above.
(§3) On the day of the experiment, media was changed to DMEM supplemented with 0.5% FBS and the cells were treated with drugs as defined by the specific experimental protocol. […] At least 10,000 cells were counted per analysis and cells that stained positive for annexin V and PI were judged to be apoptotic.
A general note: Flow cytometry measures light scatter and fluorescence of single cells or particles in a stream.

A further data set relates to MLL prostate tumors. The data set can be described thus: MLL prostate tumors in Copenhagen rats. It is filed as in vivo, rat. Conditions: for TUNEL positive nuclei in tumors: 300 cells from randomly chosen fields, control 19.2%. As for the experimental part: To test the anticancer effect of ML-7 in a rat prostate cancer model as follows. MLL cells grown in culture as described above were harvested and washed in serum-free Hank's buffer. The cells were suspended in 500 μl serum-free Hank's and 10^6 cells were injected subcutaneously into the right flank of 12-week old male Copenhagen rats anesthetized with ether. […] The rats were randomly divided into four groups, five in each group. The rats received injections of ML-7 or vehicle via the jugular vein every 4 days for 2 weeks. ML-7 was used at the dose of 35 mg/kg. Etoposide was injected intraperitoneal injection (IP) at the maximum tolerant dose of 50 mg/m^2 daily (Muenchen et al., 2000, Anticancer Res 20:735-40), The rats were sacrificed with ether 14 days after the start of drug treatment. The tumors were removed, weighed and processed as described above.
Tumor sections were also examined for apotosis using TUNEL staining Sections were deparaffinized and rehydrated according to standard protocol. Tissue sections were permeabilized by placing slides in 10 mM citrate buffer (pH 6.0) and applying 350W microwave irradiation for 5 min. Tissue sections were then stained with TMR Red-labelled terminal deoxynucleotidyl transferase dUTP nick-end labeling (TUNEL) enzyme reagent using the In Situ Cell Death Detection kit (Roche Molecular Biochemicals, Indianapolis, Ind.) as described by the manufacturer. Sections stained with the labeling solution without the terminal transferase were used as negative control. Tissue sections were finally mounted using Vectashield containing DAPI and examined using a Zeiss LSM 510 laser confocal microscope.

A further data set relates to Mm5MT mammary tumors. Particulars: for tumor growth (in words): mice, 27 mM ML-7 osmotic pump or 25 mg/kg etoposide i.p., 4 weeks, only the etoposide effect statistically significant; for tolerability on physical examination: mouse, in vivo. As for the experimental part: To investigate the anticancer activity of ML-7 in vivo, Mm5MT cells were injected into the right flanks of female mice as follows. Mm5MT cells grown in culture were harvested immediately before injection into syngeneic MMTV-C3H/HeM mice. Cells were washed to remove serum and 10^6 cells were resuspended in 100 μl of serum-free DMEM. Healthy, MMTV-free female mice (14-20 weeks old) were anesthetized with ether and 10^6 cells were injected subcutaneously into the right flank. The mice were randomly divided into four groups of five mice, each, and treated with vehicle, ML-7, etoposide or ML-7 plus etoposide. Drug administration was started 1 week after the cells were injected. To deliver ML-7, a small horizontal incision was made in the interscapular area and a 200 μl osmotic pump (Alzet, Cupertino, Calif.) filled with either 27 mM ML-7 in 50% DMSO or 50% DMSO (vehicle control) was implanted and the wound closed. […] When given, 25 mg/kg etoposide was injected intraperitoneally on the first 3 days of every week for 4 weeks (days 7-9, 14-16, 21-23 and 28-30) (Nakamura el al 2003, Cancer Sci 94:119-24). The mice were sacrificed with ether after 4 weeks of drug administration and tumors were removed, weighed and processed for analysis.
Histological analysis of the tumors was conducted as follows. The excised tumours were gently patted dry and weighed using a Mettler digital balance. Tumors were then sectioned into 2 mm slices, fixed in 10% neutral buffered formalin, routinely processed and embedded in paraffin. […] Photomicrographs documenting the entire section were collected and areas of necrotic and viable tumor were determined using the manual tracing tools within MetaMorph 6.2 (Universal Imaging Corporation, Downingtown, Pa.).

For the next data set, the system named is SHR. The data set is described as follows: Systolic blood pressure (tail-cuff) in SHR, drug given continuously for 3 weeks by osmotic pump. It counts as in vivo, rat. Conditions: SHR 16 weeks old at start; osmotic pump, continuous 3 weeks; vehicle 221.6. On the procedure:
The importance of regulating MLCK expression by Ras signaling in vivo was further investigated by treating SHR with U0126 continuously for 3 weeks. U0126 is a specific inhibitor MEK (Favata et al., 1998J. Biol. Chem. 273: 18623-18632), an upstream regulator of ERK in the Ras signaling pathway (Chien & Hoshijima, 2002, Id.). […] In these experiments, Systolic blood pressure (SBP) was measured using tail-cuff sphygmomanometry (IITC Incorporated/Life Sciences Institute, Woodland Hills Calif.). Drugs were delivered via an osmotic pump (DURECT Corporation, Cupertino, Calif.) implanted subcutaneously in the shoulder. The pumps (having a 2 mL capacity at a delivery rate of 2.45 μL/hour) were filled with 13.5 mM U0126 (BIOMOL Research Laboratories, Plymouth Meeting, Pa.) dissolved in 50% DMSO or vehicle alone. Three weeks later, rats were sacrificed and aortas were removed. Some vessels were processed for histology, while other tissue was immediately placed in ice-cold acetone containing 10% trichloroacetic acid (TCA) and 10 mM dithiothreitol (DTT). Endothelial cells were removed by gently rubbing the inside of the vessels with a cell lifter and connective tissue was removed by dissection. The cleaned vessels were then frozen on dry ice and stored at −80° C. for biochemical analysis.
Another experiment was conducted to determine if inhibiting Ras signaling could decrease blood pressure in SHR.

For data set [2], the system named is Mm5MT mouse mammary cancer cells. The data set is described as follows: Apoptosis by FACS (annexin V and PI) in Mm5MT cells. It counts as cell-based. As for the experimental part: as §2, §3
The cells were then treated with trypsin, washed twice with cold PBS and re-suspended in 100 μl of buffer containing 10 mM Hepes, pH 7.4, 140 mM NaCl and 2.5 mM CaCl2 (binding buffer). Then, 5 μl of FITC-conjugated annexin V (Pharmingen, San Diego, Calif.) and 10 μl of propidium iodide (PI) (50 μg/ml) were added and cells were incubated in the dark at room temperature for 15 min.

In data set [3] the test system is precancerous mammary alveolar lesions (MAL). The data set is described as follows: Mouse mammary gland organ culture, DMBA-induced mammary alveolar lesions (MAL). It counts as cell-based. As for the experimental part: To determine the effects of inhibiting MLCK in mammary tumors, an in vitro mammary cancer model was used as follows. Mammary glands obtained from young Balb/c mice that are exposed to 7,12-dimethylbenz(a)anhracene (DMBA) for 24 hours in culture form precancerous lesions in 24 days (Mehta et al., 2000, J Natl Cancer Instit 92:418-23). In this experiment, 70 mammary glands from 35 Balb/c mice were divided into seven groups of 10 glands each and incubated in serum-free medium containing insulin, prolactin (5 μg/ml each), aldosterone and hydrocortisone (1 μg/ml each) for 10 days. DMBA (2 μg/ml) was included in the medium for 24 hours on day 3. The glands were incubated for an additional 14 days in the absence of hormones except insulin. This allows the regression of the normal mammary alveolar structures. […] Chemopreventive agents were included in the medium during the first 10 days. The glands were fixed in formalin and stained with alum carmine and evaluated for MAL. Percent inhibition was calculated by comparing the incidence in the control glands with the treated groups.

The test system of another data set is smooth muscle cells. Conditions: cited from earlier work.
In a further data set the test system is MLC-P in MLL cells. The data set can be described thus: MLC-P by urea/glycerol gel-immunoblotting in MLL cells. It counts as cell-based, rat. Particulars: 5 μM ML-7, 30 μM etoposide or both. As for the experimental part: as §1
To determine if ML-7 stimulates the ability of etoposide to induce apoptosis and retard tumor growth widely, the effects of ML-7 and etoposide on MLL prostate cancer cells were determined. In this case, pre-treated MLL cells were grown in culture with 5 μM ML-7 before adding varying concentrations of etoposide from 1 to 1000 μlM.
A general note: Immunoblotting shows a protein as a band on a membrane.

With `O=S(=O)(c1cccc2c(I)cccc12)N1CCCNCC1` [ML-7], the MLC-P entry in the data set with MLC-P in Mm5MT cells and in the data set on MLC-P in MLL cells was “decreased” throughout. Further, the “apoptotic cells (annexin V and PI positive)” value is “dose-dependent increase” in data set [1] (5-25 μM ML-7, 16 h) and “dose-dependent increase” in data set [2] (5-25 μM ML-7, 16 h). In addition, the “TUNEL positive nuclei in tumors” value in the data set with MLL prostate tumors is recorded as 40,6%. For the same molecule, the “decrease in tumor weight” value in the data set with MLL prostate tumors (Copenhagen rats, ML-7 35 mg/kg every 4 days, etoposide 50 mg/m^2 daily IP, 14 days, vs. vehicle control) was 29.6%. Besides, the “tumor growth (in words)” value in the data set on Mm5MT mammary tumors is recorded as “decreased”. Also, the “tolerability on physical examination” value in the data set with Mm5MT mammary tumors is given as “tolerated these drugs without visible signs of discomfort”. The “systolic blood pressure at the end of the 3-week treatment period” value in the data set on SHR is on record as 165.0±3.9 mmHg. For the same molecule, in data set [2] (10 μM ML-7, 0 etoposide), the “apoptosis by ML-7 by itself” value was “significantly increased”. Also, the “inhibition of MAL development” value in data set [3] (0.1 μM, compared to control) was 40%; in [3] (1 μM, compared to a 70% incidence in the control glands) it was 58%. The “apoptosis in smooth muscle cells” value with smooth muscle cells is “induces apoptosis”.
As to `COc1cc([C@@H]2c3cc4c(cc3[C@@H](O[C@@H]3O[C@@H]5CO[C@@H](C)O[C@H]5[C@H](O)[C@H]3O)[C@H]3COC(=O)[C@H]23)OCO4)cc(OC)c1O` [etoposide], in the data set on MLC-P in Mm5MT cells, the MLC-P result is listed as “decreased”. In data set [1] (Rattus norvegicus, with ML-7 (5 μM pretreatment), read-out: concentration of etoposide required for inducing apoptosis in 50% of the cells), the EC50 worked out at 68 µM. In addition, the “TUNEL positive nuclei in tumors” value with MLL prostate tumors was determined as 35.8%. In the data set with Mm5MT mammary tumors, the “tumor growth (in words)” value is “decreased” and the “tolerability on physical examination” value was “tolerated these drugs without visible signs of discomfort”. Further, the “inhibition of MAL development” value in data set [3] (0.1 μM, compared to control) is reported as “did not affect”. Further, the “inhibition of the incidence of lesion formation” value in data set [3] (1 and 10 μM, compared to control) is on record as 40-46%. Besides, in the data set on MLC-P in MLL cells, the MLC-P entry is on record as “smaller decrease”.
